According to US11903908B2, “Methods of administering amantadine” (Adamas Pharma, LLC, priority 2013, dated 2024):
Counter-ions that a name gives are not always drawn. Like-named read-outs stand apart in the source and are kept apart here.

What was measured:
[1] = test system: PD patients with levodopa-induced dyskinesia (LID); settings: cited from earlier work
[2] = test system: subjects with Parkinson's Disease (PD) who have levodopa-induced dyskinesia (LID); test: Randomized, double-blind, placebo-controlled study of Amantadine ER capsules for levodopa-induced dyskinesia in Parkinson's Disease (Example 5)
Excerpt: Study Objectives: This study was designed to evaluate the efficacy of three dose levels of Amantadine Extended Release (ER) oral capsules dosed once nightly at nighttime for the treatment of levodopa-induced dyskinesia (LID) in subjects with Parkinson's Disease (PD). […] Study design: This was a multi-center, randomized, double-blind, placebo-controlled, 4-arm parallel group study of Amantadine ER in subjects with PD who have LID.
Subjects who were randomized to Treatment C received, in double-blind fashion, 260 mg Amantadine ER once nightly during week 1, with an increase to 340 mg once nightly at the beginning of week 2. Subjects who were randomized to Treatment D, in double-blind fashion, 260 mg Amantadine ER once nightly during week 1, with an increase to 340 mg Amantadine ER once nightly during week 2, with a further increase to 420 mg once nightly at the beginning of week 3. Dosing for all groups continued at the nominal dose through week 8.
Following completion of the baseline visit and randomization, subjects returned to the clinic after 1, 2, 4, 6, and 8 weeks of dosing, with a follow-up visit 14 days following the last dose of study drug. Study visits and assessments were scheduled during the hours between 10 am through 4 pm. A set of two 24-hour diaries were be completed during 48 hours prior to randomization and 48 hours prior to selected study visits. The diary was used to score five different conditions in 30-minute intervals: Sleep, OFF, ON without dyskinesias, ON with nontroublesome dyskinesias, ON with troublesome dyskinesias.
Blood samples were collected at selected study visits for determination of amantadine plasma concentrations, and evaluation of steady-state population pharmacokinetics. Subject participation during the study was up to 12 weeks including a 2-week (maximum) screening period, 8-week (maximum) treatment period, and a 2-week follow-up period. Subjects unable to tolerate their assigned study drug assignment permanently discontinued study drug and continued to be followed for safety through 2 weeks following the last dose of study drug. […]

[3] = amantadine IR 200 mg/day, PD patients

**Q.** Which “reduction in LID” value [1, 3] does the source give for NC12CC3CC(CC(C3)C1)C2 [amantadine, Amantadine HCl] here?
**A.** approximately 25%

**Q.** And the tolerability [1, 3]?
**A.** generally tolerated by the majority of PD patients

**Q.** And the CNS side effects ([1]; amantadine IR 300 mg/day or higher)?
**A.** associated with central nervous system (CNS) side effects

**Q.** What about the “reduction of LID” value ([1]; amantadine IR 300 mg/day, PD patients) of the same compound?
**A.** ~40%

**Q.** And the “reduction of LID” value ([1]; amantadine IR 300 to 400 mg/day, one study)?
**A.** ~60%

**Q.** And the “effect on motor fluctuations (ON/OFF)” value ([1]; later stages of PD)?
**A.** no effect

**Q.** What about the discontinuation rates ([2]; 420 mg once nightly) of the same compound?
**A.** higher discontinuation rates

**Q.** What about the “frequency of side effects” value ([2]; 420 mg once nightly) of the same compound?
**A.** comparable frequency of side effects

**Q.** What about the tolerability ([2]; 260-420 mg once nightly, Parkinson's disease patients) of the same compound?
**A.** well tolerated
